Reference: US10975092B2, “Pyrimidine seven-membered-ring compounds, preparation method therefor, pharmaceutical composition thereof, and uses thereof” (priority 2016, dated 2021)

What was measured:
[1] = system: DSS-treated wild type mice; test: Intestinal repair in DSS-induced intestinal injury mouse model; type: in vivo
Method: 8-10 week old wild type mice were fed with water containing 2.5% DSS (MW 36-50 kDa, Cat. #160110, MP Biochemical) for 7 days, then switch to conventional drinking water. […] Throughout the experiment, the body weight of mice was weighed every day at a fixed time and calculate the ratio of the weight and the weight before DSS feeding. […] The DAI values were calculated as follows: the integrity of the stool (value 0-3, where 0: full dried fecal pellets; 1: soft particles; 2: loose, wet stool; 3: diarrhea); detection of intestinal bleeding with tolidine (o-tolidine) (value 0-3, where 0: detection reagent was added for 2 minutes, sample no color; 1: detection reagent was added, the sample within 10 seconds from light blue to blue; 2: after adding detection reagents, samples gradually changed from light brown to brown clear blue and a visible color in the feces; 3: after adding detection reagents, samples rapidly becoming brownish blue, significant blood and bleeding in a anus and feces. The body weight change in mice and DAI values were recorded for indicating the degree of intestinal injury repair.

[2] = system: wild type mice after hepatectomy; test: Liver regeneration after partial liver resection (hepatectomy) in mice; type: in vivo; settings: about 2/3 hepatectomy, 1 mg/kg body weight intraperitoneally twice daily, 1-7 days
Method: Student's t-test in comparing drug-treated group and control group, *P<0.05, ***P<0.001.
8-10 week old wild type mice were anesthetized with intraperitoneal pentobarbital (80 mg/kg body weight). Hepatectomy was performed to remove left rear and intermediate liver lobes, about ⅔ of the entire liver. […] Mice after hepatectomy of 1, 2, 3, 4, 5, 6, or 7 days were sacrificed. Mouse body weight and liver weight are recorded and used to calculate the weight ratio of the liver (FIG. 2a). Liver tissue section used in immunohistochemistry to detect proliferating hepatocytes (of Ki67-positive) percentage.

recombinant Mst1 = biological target: T1, recombinant Mst1 (Homo sapiens, UniProt Q13043); test: Inhibition of Mst1 kinase activity, ELISA of Mob1 substrate phosphorylation; type: biochemical; settings: MST1 IC50, recombinant Mst1 11 nM; ATP 6.7 gIVI; GST-Mob1a substrate; 30° C. 15 min
T1 sequence (Q13043 1-487): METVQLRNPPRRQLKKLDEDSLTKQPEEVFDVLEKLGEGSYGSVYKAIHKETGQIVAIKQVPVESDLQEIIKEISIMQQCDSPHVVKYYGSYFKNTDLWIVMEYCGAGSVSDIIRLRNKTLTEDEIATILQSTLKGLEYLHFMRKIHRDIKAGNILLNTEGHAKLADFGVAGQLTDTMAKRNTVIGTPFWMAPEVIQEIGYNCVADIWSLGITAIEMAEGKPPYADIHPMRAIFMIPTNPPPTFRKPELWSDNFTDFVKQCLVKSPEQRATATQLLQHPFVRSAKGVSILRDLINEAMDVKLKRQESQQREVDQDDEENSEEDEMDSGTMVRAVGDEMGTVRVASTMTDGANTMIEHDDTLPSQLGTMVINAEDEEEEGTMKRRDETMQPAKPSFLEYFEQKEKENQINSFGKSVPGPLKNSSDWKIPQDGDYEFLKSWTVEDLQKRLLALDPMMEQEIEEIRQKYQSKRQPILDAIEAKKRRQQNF
Method: (§1) We adopt a specific ELISA (Enzyme-linked immunosorbent assay) assay for measuring the biochemical activity (FIG. 1).
(§2) Specific methods are as follows:
(§3) 1. The substrate was diluted with purified recombinant GST-Mobla 200 nM in coating buffer, added to 96-well plates (Nalge Nunc International, Denmark), coated for overnight at 4° C., washed nextday three times with rinsing solution;
(§4) a. A kinase reaction buffer;
(§5) c. compound (dissolved in DMSO, containing not more than 1% of the total volume of the reaction);
(§6) Control Group Containing No ATP or Kinase;
(§7) 3. The reaction solution was poured to terminate the kinase reaction, and washed 4 times with rinse solution, 5 minutes each wash;
(§8) 4. Add 200 μL, per well of the blocking solution, shaking for 1 hour at room temperature, washed 4 times with rinsing solution;
(§9) 7. Add TMB chromogenic solution (Biolegend, Cat.B200119, B200120). After the color reaction to a certain extent, add to each well 100 μL, of 2M H2SO4 to terminate the reaction;
(§10) 8. […] Each set of three parallel experiments, the negative control is a solution with a final concentration of 1% DMSO, the control is the reaction system containing no ATP. […] The reagents are as follows: Coating Buffer: 0.1M NaHCO 3, 0.033M Na2CO3, pH 9.5 Rinse solution: 0.05% Tween-20 in PBS Reaction buffer: 40 mM of Hepes-NaOH (pH 7.4), 10 mM of MgCl2, 1 mM of dithiothreitol (DTT), 1 mM of NaF, 1 mM of Na3VO4, 1 mM of β-glycerophosphate Blocking solution: 1% BSA dissolved in PBS Compound Inhibition of Kinase Activity

recombinant MST2 = biological target: T2, recombinant MST2 (Homo sapiens, UniProt Q13188); test: Inhibition of Mst2 kinase activity, ELISA of Mob1 substrate phosphorylation; type: biochemical; settings: MST2 IC50, 3.7 nM recombinant MST2; ATP 11.2 gIVI; GST-Mob1a substrate; 30° C. 15 min
T2 sequence (Q13188 1-491): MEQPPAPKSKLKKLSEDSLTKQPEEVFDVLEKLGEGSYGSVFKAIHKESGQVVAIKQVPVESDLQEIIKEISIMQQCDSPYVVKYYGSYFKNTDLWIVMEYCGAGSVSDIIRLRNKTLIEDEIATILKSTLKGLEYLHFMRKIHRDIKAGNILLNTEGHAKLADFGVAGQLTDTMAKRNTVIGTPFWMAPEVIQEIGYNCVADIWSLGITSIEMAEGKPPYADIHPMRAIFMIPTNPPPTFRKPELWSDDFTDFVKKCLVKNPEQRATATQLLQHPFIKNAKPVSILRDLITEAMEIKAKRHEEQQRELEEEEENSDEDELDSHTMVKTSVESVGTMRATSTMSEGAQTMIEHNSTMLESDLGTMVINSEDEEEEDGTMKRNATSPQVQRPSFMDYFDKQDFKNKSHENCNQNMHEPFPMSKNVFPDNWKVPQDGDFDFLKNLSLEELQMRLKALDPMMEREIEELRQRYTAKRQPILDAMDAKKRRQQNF
Method: as §1, §2, §3, §4, §5, §6, §7, §8, §9, §10

Row | Structure (SMILES) | Intestinal repair in DSS-induced intestinal injury model ([1]; 2.5% DSS in water 7 days, 1 mg/kg body weight injected once per day) | Body weight of DSS-treated mice ([1]; 2.5% DSS in water 7 days, 1 mg/kg once per day, FIG. 3a) | Intestinal injury clinical symptoms (disease activity index, DAI) ([1]; 2.5% DSS in water 7 days, 1 mg/kg once per day, FIG. 3b) | Yap activity in intestinal epithelial cells (immunohistochemical staining) ([1]; day 8 after DSS water feeding, 1 mg/kg once per day, FIG. 3c) | Epithelial repair and cell proliferation (BrdU and Ki67 positive cells in intestinal tissue) ([1]; day 8 after DSS water feeding, 1 mg/kg once per day, FIG. 3c-e) | Liver regeneration after partial liver resection (liver/body weight ratio, Ki67-positive hepatocytes) [2] | IC50 (recombinant Mst1) [nM] | IC50 (recombinant MST2) [nM]
1 | CN1C(=O)c2sccc2N(C)c2nc(Nc3ccc(S(N)(=O)=O)cc3)ncc21 [II-1] | promotes intestinal repair | significantly increase | slow the intestinal injury clinical symptoms | increases Yap activity | promote epithelial repair and cell proliferation | Effective in Promoting Liver Regeneration | 140 | 40
2 | CN1C(=O)c2ccc(Cl)cc2N(C)c2nc(Nc3ccc(S(N)(=O)=O)cc3)ncc21 [IH-13] | – | – | – | – | – | – | 7820 | 9470
3 | Cc1cccc2c1N(C)c1nc(Nc3ccc(S(C)(=O)=O)cc3)ncc1N(C)C2=O [IH-2] | – | – | – | – | – | – | 890 | 1680
4 | CN1C(=O)c2sccc2N(C)c2nc(Nc3cnn(C(=O)CCl)c3)ncc21 [II-30] | – | – | – | – | – | – | 810 | 440
5 | Cc1cccc2c1N(C)c1nc(Nc3ccc(S(N)(=O)=O)cc3)ncc1N(C)C2=O [IH-4] | – | – | – | – | – | – | 150 | 190
6 | CN1C(=O)c2ccccc2N(C)c2nc(Nc3ccc(S(=O)(=O)NC4CC4)cc3)ncc21 [IC-9] | – | – | – | – | – | – | 180 | 2330
